Source: PMC2990756, “Quantitative High-Throughput Screening Identifies 8-Hydroxyquinolines as Cell-Active Histone Demethylase Inhibitors” (PLoS ONE, 2010)

Columns and labels:
JMJD2E (KDM4E) = biological target: T1, JMJD2E (KDM4E) (Homo sapiens, UniProt B2RXH2); assay: qHTS fluorescence FDH-coupled JMJD2E demethylase assay; format: biochemical; conditions: Table S1; unit not in table, from Figure 2; read-out: qHTS Data: jmjd2e IC50
T1 construct: The catalytic domain of human JMJD2E (residues 1–337); His6 (N); made in house; host or cells: E. coli
T1 sequence (B2RXH2 1-337): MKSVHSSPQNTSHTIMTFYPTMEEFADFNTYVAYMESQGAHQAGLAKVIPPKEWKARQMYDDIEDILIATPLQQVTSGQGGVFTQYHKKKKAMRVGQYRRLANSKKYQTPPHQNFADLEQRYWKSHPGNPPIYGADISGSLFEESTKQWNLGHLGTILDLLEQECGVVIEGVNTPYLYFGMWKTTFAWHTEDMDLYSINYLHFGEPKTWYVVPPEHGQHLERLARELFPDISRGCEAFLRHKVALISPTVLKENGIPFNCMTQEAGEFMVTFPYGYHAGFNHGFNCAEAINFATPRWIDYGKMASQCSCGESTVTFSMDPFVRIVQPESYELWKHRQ
Text: The oxidation of formaldehyde is coupled to the reduction of NAD^+ to NADH, which is monitored by fluorescence spectroscopy. […] To this end, initial screening hits were filtered by a combination of cheminformatics (to exclude low-confidence inhibitors and autofluorescent false positives), counterscreening against the coupled-assay component formaldehyde dehydrogenase (FDH), and orthogonal direct detection of inhibition of demethylation by mass spectrometry ( Figure 1 ).
Reactions were initiated with 1 µL addition of peptide substrate solution containing final concentrations of 10 µM FAS, 50 µM 2OG, 0.25 U/mL FDH, 0.25 mM NAD^+, and 50 µM peptide substrate (ARK(me3)STGGK). A ViewLux imager (PerkinElmer, Waltham, MA) was used to measure NADH fluorescence (λex 340 nm, λem 450 nm) immediately after substrate addition and following 30 min incubation at room temperature. To record any systematic drifts in assay behavior (signal window and noise), assay plates containing no library compounds but only DMSO as a vehicle control were tested periodically (every ∼60 plates) throughout the screen.
Data were normalized to the basal response (0% activity) in the absence of enzyme and the maximal response (100% activity) in the absence of compound. Using the Hill equation, dose-response curves and IC50 values were automatically generated for each compound tested with software developed internally (www.ncgc.nih.gov/pub/openhts/curvefit/). […] The initial well fluorescence (first kinetic read) associated with each sample was stored in a database and used in the cheminformatics analysis to identify autofluorescent compounds interfering with the assay signal.

[1] = biological target: T2, formaldehyde dehydrogenase (FDH) (Pseudomonas putida, UniProt P46154); assay: FDH coupling enzyme counterscreen; format: biochemical; conditions: Table S1, FDH counterscreen; for IC50: unit not in table, from Figure 2, read-out: qHTS Data: jmjd2e fdh IC50
T2 construct: purchased Sigma-Aldrich
Text: Dimethylsulfoxide certified ACS grade (DMSO) was from Fisher, Inc. HEPES buffer was obtained from Gibco. […] Black solid-bottom 1,536-well assay plates were from Greiner Bio-One (Monroe, NC).

JMJD2E [2] = biological target: T3, JMJD2E (Homo sapiens, UniProt B2RXH2); assay: MALDI-TOF MS demethylation assay, JMJD2E; conditions: Table S1, 2 µM JMJD2E; for MALDI-TOF Data: Span: span of the fitted curve; for IC50: read-out: MALDI-TOF Data: IC50, unit not in table, ~ values are poorly fitted
T3 sequence (B2RXH2 1-337): T1 sequence (B2RXH2 1-337)
Experimental: Initially, JMJD2, Fe(II), ascorbate and inhibitors were pre-incubated for 15 min prior to the addition of peptide and 2OG. The reaction was incubated for 30 min before 1∶1 quenching with methanol followed by addition of four volumes of 20 mM triammonium citrate. […] The diluted assay mixture (1 µL) from JMJD2 and PHD2 assays were mixed with 1 µL of α-cyano-4-hydroxycinnamic acid and 1 µL of FIH assay mixture was mixed with 1 µL of sinapinic acid matrix, and assessed by matrix-assisted laser desorption/ionization-time of flight (MALDI-TOF).

JMJD2E [3] = biological target: T3, JMJD2E; assay: JMJD2E FDH-coupled assay under low and high iron conditions (iron chelation profile); format: biochemical; set-up: The catalytic domain of human JMJD2E (residues 1–337); His6 (N); made in house; host or cells: E. coli; conditions: Table S1; for IC50: unit not in table, from Figure 2
Experimental: The prioritized compounds were also evaluated in the screening assay using two different ferrous ion concentrations (termed high iron and low iron, respectively), in order to assess their propensity for iron chelation.
The ratio of IC50 values under high iron to low iron was calculated for each compound.

[4] = high iron, head says 20 µM FAS, read-out: qHTS Data: jmjd2e fas20um IC50
[5] = low iron 2.5 µM FAS, read-out: qHTS Data: jmjd2e fas2.5um IC50

T2 sequence (P46154 whole entry): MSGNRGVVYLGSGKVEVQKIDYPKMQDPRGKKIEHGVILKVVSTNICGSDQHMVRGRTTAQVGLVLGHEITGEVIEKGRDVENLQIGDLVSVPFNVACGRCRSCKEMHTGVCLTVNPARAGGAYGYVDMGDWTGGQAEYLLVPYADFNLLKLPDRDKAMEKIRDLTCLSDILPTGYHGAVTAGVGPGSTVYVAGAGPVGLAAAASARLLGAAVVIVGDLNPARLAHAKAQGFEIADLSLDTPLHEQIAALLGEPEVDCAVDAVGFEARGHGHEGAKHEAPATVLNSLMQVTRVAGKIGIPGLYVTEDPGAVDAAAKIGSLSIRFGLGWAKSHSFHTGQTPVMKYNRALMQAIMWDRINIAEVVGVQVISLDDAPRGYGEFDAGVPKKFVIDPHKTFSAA

| Structure (SMILES) | IC50 (JMJD2E (KDM4E)) | qHTS Data: jmjd2e fdh CurveClass [1] | MALDI-TOF Data: Span (JMJD2E [2]) | IC50 (JMJD2E [2]) | IC50 (JMJD2E [3]; [4]) | IC50 (JMJD2E [3]; [5]) | qHTS Data: jmjd2e fas20um CurveClass (JMJD2E [3]; high iron) | IC50 [1] | qHTS Data: jmjd2e fas2.5um Curve comment (JMJD2E [3]; low iron 2.5 µM FAS) |
| --- | --- | --- | --- | --- | --- | --- | --- | --- | --- |
| CN1CCN(Cc2cc(COCc3ccccc3)c3cccnc3c2O)CC1 [compound 4248346] | 8.91 µM | Inactive | 96.1 | 17.2 µM | 8.91 µM | 7.08 µM |  |  |  |
| CCCCc1ccc(C(=O)O)nc1 [compound 11111188] | 3.98 µM | Inactive | ~ 5848 |  | 1.58 µM | 3.55 µM |  |  |  |
| O=c1c(O)c(-c2cc(O)c(O)c(O)c2)oc2cc(O)cc(O)c12 [compound 11111488] |  | Inactive | 95.03 |  |  |  | Poor quality curve |  |  |
| C[C@@](Cc1ccc(O)c(O)c1)(NN)C(=O)O [compound 11113507] | 3.55 µM | Inactive | 95.69 | 5.6 µM | 14.1 µM | 3.55 µM |  |  |  |
| O=c1cc(-c2ccccc2)oc2cc(O)c(O)c(O)c12 [compound 11114203] | 0.89 µM | Inactive | 89.05 | 5.8 µM | 8.91 µM | 2.24 µM |  |  |  |
| c1cnc2c(c1)ccc1cccnc12 [compound 11533040] | 0.25 µM | Inactive | 93.01 | ~26.5 µM | 3.98 µM | 10 µM |  |  |  |
| O=C(O)c1cc(O)c(O)c(O)c1 [compound 26747307] | 0.35 µM | Poor quality curve |  |  | 17.8 µM | 0.13 µM |  | 31.6 µM |  |
| CC1=CC(=O)c2c(O)cccc2C1=O [compound 26747815] | 8.91 µM | Poor quality curve |  |  | 12.6 µM | 2.24 µM |  | 17.8 µM |  |
| Cl.NCCc1cc(O)c(O)cc1O [compound 26748180] | 6.31 µM | Poor quality curve |  |  | 7.94 µM | 2.51 µM |  |  |  |
| CN(C)C1C(=O)C(C(N)=O)=C(O)[C@@]2(O)C(=O)C3=C(O)c4c(O)cccc4[C@@](C)(O)C3CC12.Cl (some centres unmarked) [compound 26748266] | 2.51 µM | Poor quality curve |  |  | 1.78 µM | 15.8 µM |  | 15.8 µM |  |
| C=C1c2cccc(O)c2C(O)=C2C(=O)[C@]3(O)C(O)=C(C(N)=O)C(=O)C(N(C)C)C3C(O)C12.Cl (some centres unmarked) [compound 26748477] | 8.91 µM | Inactive |  |  | 2.51 µM | 12.6 µM | Poor quality curve |  |  |
| O=C(OCC1OC(OC(=O)c2cc(O)c(O)c(OC(=O)c3cc(O)c(O)c(O)c3)c2)[C@@H](OC(=O)c2cc(O)c(O)c(OC(=O)c3cc(O)c(O)c(O)c3)c2)C(OC(=O)c2cc(O)c(O)c(OC(=O)c3cc(O)c(O)c(O)c3)c2)C1OC(=O)c1cc(O)c(O)c(OC(=O)c2cc(O)c(O)c(O)c2)c1)c1cc(O)c(O)c(OC(=O)c2cc(O)c(O)c(O)c2)c1 (some centres unmarked) [compound 26748902] | 0.28 µM |  |  |  | 15.8 µM | 0.16 µM |  | 7.94 µM |  |
| CCc1ccc2c(O)c3c(cc2c1C(=O)OC)C(=O)c1c(O)ccc(O)c1C3=O [compound 26749155] | 2.82 µM | Poor quality curve |  |  | 11.2 µM | 3.98 µM |  | 3.16 µM |  |
| O=C1C=CC(=O)c2c(O)cccc21 [compound 26749198] | 7.08 µM | Inactive |  |  | 14.1 µM | 5.01 µM |  |  |  |
| O=C1c2ccc(O)c(O)c2C(=O)c2c(O)ccc(O)c21 [compound 26749241] | 3.55 µM | Inactive |  |  | 15.8 µM | 2.51 µM |  |  |  |
| Oc1cc2c(cc1O)C1c3ccc(O)c(O)c3OCC1(O)C2 (centres unmarked) [compound 26749470] | 0.71 µM | Inactive |  |  | 14.1 µM | 1.58 µM | Poor quality curve |  |  |
| O=c1c(-c2cc(O)c(O)c(O)c2)coc2cc(O)c(O)c(O)c12 [compound 26749510] | 2.82 µM |  |  |  | 14.1 µM | 1 µM |  | 3.98 µM |  |
| CCOc1cccc(C(=O)c2ccc(O)c(O)c2O)c1 [compound 26749554] | 10 µM | Inactive |  |  | 8.91 µM | 4.47 µM |  |  |  |

| Structure (SMILES) | IC50 (JMJD2E (KDM4E)) | qHTS Data: jmjd2e fdh CurveClass [1] | MALDI-TOF Data: Span (JMJD2E [2]) | IC50 (JMJD2E [2]) | IC50 (JMJD2E [3]; [4]) | IC50 (JMJD2E [3]; [5]) | qHTS Data: jmjd2e fas20um CurveClass (JMJD2E [3]; high iron) | IC50 [1] | qHTS Data: jmjd2e fas2.5um Curve comment (JMJD2E [3]; low iron 2.5 µM FAS) |
| --- | --- | --- | --- | --- | --- | --- | --- | --- | --- |
| O=C1C=CC2=C3c4cc(O)c(O)cc4CC3(O)COC2=C1O (centres unmarked) [compound 26749676] | 6.31 µM |  |  |  | 17.8 µM | 2 µM | Poor quality curve | 11.2 µM |  |
| O=C(OC1Cc2c(O)cc(O)cc2OC1c1cc(O)c(O)c(O)c1)c1cc(O)c(O)c(O)c1 (centres unmarked) [compound 26749738] | 2.51 µM | Poor quality curve |  |  | 7.08 µM | 1.41 µM |  | 14.1 µM |  |
| COc1cccc(O)c1O [compound 26749778] | 7.94 µM | Inactive |  |  | 15.8 µM | 4.47 µM |  |  |  |
| COC(=O)c1cc(=O)c(O)c2c(O)c(O)ccc2c1 [compound 26749939] | 8.91 µM | Inactive |  |  | 22.4 µM | 7.94 µM |  |  |  |
| O=c1c(O)c(-c2ccc(O)c(O)c2)oc2c(O)c(O)cc(O)c12 [compound 26750048] | 2.82 µM | Inactive |  |  |  | 1.41 µM | Inactive |  |  |
| CNC[C@H](O)c1ccc(O)c(O)c1 [compound 26754418] | 7.08 µM | Inconclusive |  |  | 12.6 µM | 5.01 µM |  |  |  |
| Oc1ccccc1O [compound 50105556] | 14.1 µM | Inactive |  |  | 14.1 µM | 10 µM | Poor quality curve |  |  |
| NCC(O)c1ccc(O)c(O)c1.O=C(O)C(O)C(O)C(=O)O (centres unmarked) [compound 50105780] | 12.6 µM | Inactive |  |  | 2 µM | 4.47 µM |  |  |  |
| Cl.Nc1ccn([C@@H]2O[C@H](CO)[C@@H](O)[C@@H]2O)c(=O)n1 [compound 50106080] | 0.89 µM | Inactive |  |  | 7.94 µM |  |  |  | Inactive |
| CNCCc1ccc(O)c(O)c1.Cl [compound 50106160] | 14.1 µM | Poor quality curve |  |  | 11.2 µM | 4.47 µM |  | 3.16 µM |  |
| N[C@H](Cc1ccc(O)c(O)c1)C(=O)O [compound 50106235] | 17.8 µM | Inactive |  |  | 12.6 µM | 12.6 µM |  |  |  |
| CN[C@@H](C)[C@H](O)c1ccccc1.CN[C@@H](C)[C@H](O)c1ccccc1.O=S(=O)(O)O [compound 50106282] | 3.55 µM | Poor quality curve |  |  | 7.94 µM | 2.24 µM | 1.2 | 12.6 µM |  |
| Cl.NCCc1ccc(O)c(O)c1 [compound 50106387] | 12.6 µM | Inactive |  |  | 3.98 µM | 11.2 µM |  |  |  |
| CC1(C)CCC2=C(O1)c1ccccc1C(=O)C2=O [compound 50106535] | 3.55 µM |  | 91.75 | 28.6 µM |  |  |  |  |  |
| CC(C)C1C(=O)C(C(N)=O)=C(O)[C@@]2(O)C(=O)C3=C(O)c4c(O)ccc(N(C)C)c4C[C@H]3C[C@@H]12.Cl (some centres unmarked) [compound 50106632] | 10 µM | Inactive |  |  | 12.6 µM | 12.6 µM | Poor quality curve |  |  |
| CN(N=O)c1ccc(O)c(O)c1 [compound 50106719] | 10 µM | Poor quality curve |  |  |  | 7.94 µM | Inactive | 31.6 µM |  |
| Cc1nc(-c2coc3c(O)c(O)ccc3c2=O)cs1 [compound 50110018] | 7.08 µM | Poor quality curve |  |  | 15.8 µM | 7.08 µM |  | 17.8 µM |  |
| O=c1c(O)c(Br)ccc2c(Br)c(O)c(O)c(O)c12 [compound 50110019] | 7.08 µM | Poor quality curve |  |  |  | 5.01 µM | Inconclusive | 28.2 µM |  |
